The term IC50 denotes the concentration at which inhibition is half-maximal.

Here are results for two compounds from paper PMC5334708, “Mosquitocidal Activity and Mode of Action of the Isoxazoline Fluralaner” (International Journal of Environmental Research and Public …, 2017).

The target in experiment [1] is T1, mammalian GABAA α1β3γ2 receptor (Homo sapiens, UniProt P14867+P18507+P28472).
T1 construct: gene GABRA1; with GABRB3 (β3) and GABRG2 (γ2) subunits
Put plainly: whole-cell planar patch clamp, block of GABA EC80 current in transfected HEK293 cells. It is filed as cell-based. For orientation: The patch-clamp technique gives a direct electrical read-out from membranes.

The target of experiment [2] is T1, mammalian GABAA α1β3γ2 receptor. Kind of experiment: whole-cell planar patch clamp, block of GABA EC80 current in transfected HEK293 cells (antagonist positive control). It is filed as cell-based.

T1 sequence (P14867 28-456): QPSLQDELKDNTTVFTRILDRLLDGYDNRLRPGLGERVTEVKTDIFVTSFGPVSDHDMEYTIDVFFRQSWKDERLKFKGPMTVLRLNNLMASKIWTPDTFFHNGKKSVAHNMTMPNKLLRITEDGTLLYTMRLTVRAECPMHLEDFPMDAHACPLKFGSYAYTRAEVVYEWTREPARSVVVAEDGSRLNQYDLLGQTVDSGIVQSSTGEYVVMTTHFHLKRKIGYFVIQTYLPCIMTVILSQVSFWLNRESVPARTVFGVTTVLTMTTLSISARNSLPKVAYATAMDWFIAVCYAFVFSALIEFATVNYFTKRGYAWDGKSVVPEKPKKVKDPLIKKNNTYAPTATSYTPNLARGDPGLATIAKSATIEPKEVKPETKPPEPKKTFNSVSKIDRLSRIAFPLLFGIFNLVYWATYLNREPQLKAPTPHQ
T1 sequence (P28472 26-473): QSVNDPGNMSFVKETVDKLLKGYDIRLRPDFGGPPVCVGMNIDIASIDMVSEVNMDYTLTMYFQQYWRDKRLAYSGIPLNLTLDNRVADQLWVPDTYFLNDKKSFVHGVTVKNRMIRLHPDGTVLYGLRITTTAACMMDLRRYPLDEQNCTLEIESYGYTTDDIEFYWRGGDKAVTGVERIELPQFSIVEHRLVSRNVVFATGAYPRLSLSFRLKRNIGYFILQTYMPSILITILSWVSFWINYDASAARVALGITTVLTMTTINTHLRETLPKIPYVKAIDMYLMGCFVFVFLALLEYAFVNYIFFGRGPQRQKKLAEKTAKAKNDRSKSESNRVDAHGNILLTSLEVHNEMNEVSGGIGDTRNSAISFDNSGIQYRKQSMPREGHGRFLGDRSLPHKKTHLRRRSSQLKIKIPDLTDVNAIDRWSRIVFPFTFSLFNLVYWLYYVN
T1 sequence (P18507 40-475): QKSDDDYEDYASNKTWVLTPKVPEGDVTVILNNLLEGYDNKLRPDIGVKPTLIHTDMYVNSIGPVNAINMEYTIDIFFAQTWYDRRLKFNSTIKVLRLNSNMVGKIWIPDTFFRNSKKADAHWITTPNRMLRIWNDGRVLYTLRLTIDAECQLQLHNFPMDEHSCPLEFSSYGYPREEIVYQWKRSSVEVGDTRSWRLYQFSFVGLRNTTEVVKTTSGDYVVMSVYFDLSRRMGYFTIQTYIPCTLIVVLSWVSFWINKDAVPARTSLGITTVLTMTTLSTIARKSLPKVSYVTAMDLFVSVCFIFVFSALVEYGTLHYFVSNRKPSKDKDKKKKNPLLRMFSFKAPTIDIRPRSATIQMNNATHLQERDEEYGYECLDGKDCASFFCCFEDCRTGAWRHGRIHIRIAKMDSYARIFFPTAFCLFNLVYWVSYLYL

In experiment [1], `N#Cc1nn(-c2c(Cl)cc(C(F)(F)F)cc2Cl)c(N)c1[S+]([O-])C(F)(F)F` (centres unmarked) [fipronil] had a 50% inhibitory concentration (IC50) of 4.9 µM.
`C=C(C)[C@@H]1[C@H]2OC(=O)[C@@H]1[C@]1(O)C[C@H]3OC34C(=O)O[C@H]2[C@@]41C.CC(C)(O)[C@@H]1[C@H]2OC(=O)[C@@H]1[C@]1(O)C[C@H]3OC34C(=O)O[C@H]2[C@@]41C` (some centres unmarked) [picrotoxin]: the IC50 in experiment [2] amounted to 3.9 µM.
